According to patent publication US9873709B2 (priority 2013, dated 2018):

These molecules were tested on JAK1-dependent STAT6 phosphorylation downstream of IL-13 stimulation in TF-1 human erythroleukemia cells (assay: cells). Conditions: TF-1, read-out: IL-13-pSTAT6 IC50.
An IC50 of 6.5 nM was found for `O=C(CCC(F)(F)F)N1CC=C(c2cccn3nc(Nc4ccc(C(=O)N5Cc6cccnc6C5)cc4)nc23)CC1` [Example 2-146, 1-[4-[2-[4-(5,7-dihydropyrrolo[3,4-b]pyridine-6-carbonyl)anilino]-[1,2,4]triazolo[1,5-a]pyridin-8-yl]-3,6-dihydro-2H-pyridin-1-yl]-4,4,4-trifluoro-butan-1-one] in this work.
An IC50 of 6.6 nM was found for `CC1CCN(CCNC(=O)c2ccc(Nc3nc4c(C5=CCN(C(=O)CCC(F)(F)F)CC5)cccn4n3)cc2)CC1` [Example 2-147, N-[2-(4-methyl-1-piperidyl)ethyl]-4-[[8-[1-(4,4,4-trifluorobutanoyl)-3,6-dihydro-2H-pyridin-4-yl]-[1,2,4]triazolo[1,5-a]pyridin-2-yl]amino]benzamide] in this work.
An IC50 of 10.7 nM was found for `CN1CCC(C2CCCCN2C(=O)c2ccc(Nc3nc4c(C5=CCN(C(=O)CCC(F)(F)F)CC5)cccn4n3)cc2)CC1` (centres unmarked) [Example 2-149, 4,4,4-trifluoro-1-[4-[2-[4-[2-(1-methyl-4-piperidyl)piperidine-1-carbonyl]anilino]-[1,2,4]triazolo[1,5-a]pyridin-8-yl]-3,6-dihydro-2H-pyridin-1-yl]butane-1-one] in this work.
An IC50 of 8.3 nM was found for `CN1CCC(N(C(=O)c2ccc(Nc3nc4c(C5=CCN(C(=O)CCC(F)(F)F)CC5)cccn4n3)cc2)C2CC2)CC1` [Example 2-150, N-cyclopropyl-N-(1-methyl-4-piperidyl)-4-[[8-[1-(4,4,4-trifluorobutanoyl)-3,6-dihydro-2H-pyridin-4-yl]-[1,2,4]triazolo[1,5-a]pyridin-2-yl]amino]benzamide] in this work.
An IC50 of 5.7 nM was found for `O=C(CCC(F)(F)F)N1CC=C(c2cccn3nc(Nc4ccc(C(=O)N5CCN6CCCCC6C5)cc4)nc23)CC1` (centres unmarked) [Example 2-151, 1-[4-[2-[4-(1,3,4,6,7,8,9,9a-octahydropyrido[1,2-a]pyrazine-2-carbonyl)anilino]-[1,2,4]triazolo[1,5-a]pyridin-8-yl]-3,6-dihydro-2H-pyridin-1-yl]-4,4,4-trifluoro-butan-1-one] in this work.
An IC50 of 9.3 nM was found for `CN(CCc1ccccn1)C(=O)c1ccc(Nc2nc3c(C4=CCN(C(=O)CCC(F)(F)F)CC4)cccn3n2)cc1` [Example 2-152, N-methyl-N-[2-(2-pyridyl)ethyl]-4-[[8-[1-(4,4,4-trifluorobutanoyl)-3,6-dihydro-2H-pyridin-4-yl]-[1,2,4]triazolo[1,5-a]pyridin-2-yl]amino]benzamide] in this work.
An IC50 of 28.6 nM was found for `O=C(CCC(F)(F)F)N1CC=C(c2cccn3nc(Nc4ccc(C(=O)N5CCN(CCO)CC5)cc4)nc23)CC1` [Example 2-153, 4,4,4-trifluoro-1-[4-[2-[4-[4-(2-hydroxyethyl)piperazine-1-carbonyl]anilino]-[1,2,4]triazolo[1,5-a]pyridin-8-yl]-3,6-dihydro-2H-pyridin-1-yl]butan-1-one] in this work.
An IC50 of 132 nM was found for `O=C(CCC(F)(F)F)N1CC=C(c2cccn3nc(Nc4ccc(C(=O)N5CCC(c6cc7cccnc7[nH]6)CC5)cc4)nc23)CC1` [Example 2-155, 4,4,4-trifluoro-1-[4-[2-[4-[4-(1H-pyrrolo[2,3-b]pyridin-2-yl)piperidine-1-carbonyl]anilino]-[1,2,4]triazolo[1,5-a]pyridin-8-yl]-3,6-dihydro-2H-pyridin-1-yl]butan-1-one] in this work.
An IC50 of 8.3 nM was found for `O=C(CCC(F)(F)F)N1CC=C(c2cccn3nc(Nc4ccc(C(=O)N5CCC(c6ccccn6)CC5)cc4)nc23)CC1` [Example 2-156, 4,4,4-trifluoro-1-[4-[2-[4-[4-(2-pyridyl)piperidine-1-carbonyl]anilino]-[1,2,4]triazolo[1,5-a]pyridin-8-yl]-3,6-dihydro-2H-pyridin-1-yl]butan-1-one] in this work.
An IC50 of 4.7 nM was found for `CC1CN(C2CCN(C(=O)c3ccc(Nc4nc5c(C6=CCN(C(=O)CCC(F)(F)F)CC6)cccn5n4)cc3)CC2)CC(C)O1` (centres unmarked) [Example 2-157, 1-[4-[2-[4-[4-(2,6-dimethylmorpholin-4-yl)piperidine-1-carbonyl]anilino]-[1,2,4]triazolo[1,5-a]pyridin-8-yl]-3,6-dihydro-2H-pyridin-1-yl]-4,4,4-trifluoro-butan-1-one] in this work.
An IC50 of 7.3 nM was found for `CN(C)[C@H]1CCN(C(=O)c2ccc(Nc3nc4c(C5=CCN(C(=O)CCC(F)(F)F)CC5)cccn4n3)cc2)C1` [Example 2-158, 1-[4-[2-[4-[(3S)-3-(dimethylamino)pyrrolidine-1-carbonyl]anilino]-[1,2,4]triazolo[1,5-a]pyridin-8-yl]-3,6-dihydro-2H-pyridin-1-yl]-4,4,4-trifluoro-butan-1-one] in this work.
An IC50 of 35.1 nM was found for `CN1CCN(C(=O)C2CN(C(=O)c3ccc(Nc4nc5c(C6=CCN(C(=O)CCC(F)(F)F)CC6)cccn5n4)cc3)C2)CC1` [Example 2-159, 4,4,4-trifluoro-1-[4-[2-[4-[3-(4-methylpiperazine-1-carbonyl)azetidine-1-carbonyl]anilino]-[1,2,4]triazolo[1,5-a]pyridin-8-yl]-3,6-dihydro-2H-pyridin-1-yl]butan-1-one] in this work.
An IC50 of 47 nM was found for `CN1CCC(N(C)C(=O)c2ccc(Nc3nc4c(C5=CCN(C(=O)C6CC6(C)C)CC5)cccn4n3)cc2)CC1` (centres unmarked) [Example 2-160, 4-[[8-[1-(2,2-dimethylcyclopropanecarbonyl)-3,6-dihydro-2H-pyridin-4-yl]-[1,2,4]triazolo[1,5-a]pyridin-2-yl]amino]-N-methyl-N-(1-methyl-4-piperidyl)benzamide] in this work.
An IC50 of 44.2 nM was found for `CN1CCC(N(C)C(=O)c2ccc(Nc3nc4c(C5=CCN(C(=O)C6C(C)(C)C6(C)C)CC5)cccn4n3)cc2)CC1` [Example 2-161, N-methyl-N-(1-methyl-4-piperidyl)-4-[[8-[1-(2,2,3,3-tetramethylcyclopropanecarbonyl)-3,6-dihydro-2H-pyridin-4-yl]-[1,2,4]triazolo[1,5-a]pyridin-2-yl]amino]benzamide] in this work.
An IC50 of 28.4 nM was found for `CN1CCC(N(C)C(=O)c2ccc(Nc3nc4c(C5=CCN(C(=O)CC(F)(F)F)CC5)cccn4n3)cc2)CC1` [Example 2-163, N-methyl-N-(1-methyl-4-piperidyl)-4-[[8-[1-(3,3,3-trifluoropropanoyl)-3,6-dihydro-2H-pyridin-4-yl]-[1,2,4]triazolo[1,5-a]pyridin-2-yl]amino]benzamide] in this work.
An IC50 of 187 nM was found for `CCOC(=O)N1CC=C(c2cccn3nc(Nc4ccc(C(=O)N5CC(CN)C5)cc4)nc23)CC1` [Example 2-165, ethyl 4-[2-[4-[3-(aminomethyl)azetidine-1-carbonyl]anilino]-[1,2,4]triazolo[1,5-a]pyridin-8-yl]-3,6-dihydro-2H-pyridine-1-carboxylate] in this work.
An IC50 of 15.8 nM was found for `CCOC(=O)N1CC=C(c2cccn3nc(Nc4ccc(C(=O)NCCN5CC(C)OC(C)C5)cc4)nc23)CC1` (centres unmarked) [Example 2-167, ethyl 4-[2-[4-[2-(2,6-dimethylmorpholin-4-yl)ethylcarbamoyl]anilino]-[1,2,4]triazolo[1,5-a]pyridin-8-yl]-3,6-dihydro-2H-pyridine-1-carboxylate] in this work.
An IC50 of 14.8 nM was found for `CCOC(=O)N1CC=C(c2cccn3nc(Nc4ccc(C(=O)NC(C)c5cccc(C)n5)cc4)nc23)CC1` (centres unmarked) [Example 2-170, ethyl 4-[2-[4-[1-(6-methyl-2-pyridyl)ethylcarbamoyl]anilino]-[1,2,4]triazolo[1,5-a]pyridin-8-yl]-3,6-dihydro-2H-pyridine-1-carboxylate] in this work.
An IC50 of 12 nM was found for `CCOC(=O)N1CC=C(c2cccn3nc(Nc4ccc(C(=O)NCCc5ccncc5)cc4)nc23)CC1` [Example 2-172, ethyl 4-[2-[4-[2-(4-pyridyl)ethylcarbamoyl]anilino]-[1,2,4]triazolo[1,5-a]pyridin-8-yl]-3,6-dihydro-2H-pyridine-1-carboxylate] in this work.
An IC50 of 12.2 nM was found for `CCOC(=O)N1CC=C(c2cccn3nc(Nc4ccc(C(=O)N5CC6(CCN(C)CC6)C5)cc4)nc23)CC1` [Example 2-175, ethyl 4-[2-[4-(7-methyl-2,7-diazaspiro[3.5]nonane-2-carbonyl)anilino]-[1,2,4]triazolo[1,5-a]pyridin-8-yl]-3,6-dihydro-2H-pyridine-1-carboxylate] in this work.
An IC50 of 8.1 nM was found for `CCOC(=O)N1CC=C(c2cccn3nc(Nc4ccc(C(=O)N5CC6(CCCN6C)C5)cc4)nc23)CC1` [Example 2-176, ethyl 4-[2-[4-(5-methyl-2,5-diazaspiro[3.4]octane-2-carbonyl)anilino]-[1,2,4]triazolo[1,5-a]pyridin-8-yl]-3,6-dihydro-2H-pyridine-1-carboxylate] in this work.
An IC50 of 15.4 nM was found for `CCOC(=O)N1CC=C(c2cccn3nc(Nc4ccc(C(=O)NCc5cccnc5C)cc4)nc23)CC1` [Example 2-177, ethyl 4-[2-[4-[(2-methyl-3-pyridyl)methylcarbamoyl]anilino]-[1,2,4]triazolo[1,5-a]pyridin-8-yl]-3,6-dihydro-2H-pyridine-1-carboxylate] in this work.
An IC50 of 32.6 nM was found for `CCOC(=O)N1CC=C(c2cccn3nc(Nc4ccc(C(=O)NCc5cncc(C)c5)cc4)nc23)CC1` [Example 2-178, ethyl 4-[2-[4-[(5-methyl-3-pyridyl)methylcarbamoyl]anilino]-[1,2,4]triazolo[1,5-a]pyridin-8-yl]-3,6-dihydro-2H-pyridine-1-carboxylate] in this work.
An IC50 of 29.9 nM was found for `CCOC(=O)N1CC=C(c2cccn3nc(Nc4ccc(C(=O)N5CC6(CCCNC6)C5)cc4)nc23)CC1` [Example 2-185, ethyl 4-[2-[4-(2,8-diazaspiro[3,5]nonane-2-carbonyl)anilino]-[l,2,4]triazolo[l,5-a]pyridin-8-yl]-3,6-dihydro-2H-pyridine-1-carboxylate] in this work.
An IC50 of 23.3 nM was found for `O=C(CCC(F)(F)F)N1CC=C(c2cccn3nc(Nc4ccc(C(=O)N5CC6(CCCNC6)C5)cc4)nc23)CC1` [Example 2-186, 1-[4-[2-[4-(2,8-diazaspiro[3.5]nonane-2-carbonyl)anilino]-[1,2,4]triazolo[1,5-a]pyridin-8-yl]-3,6-dihydro-2H-pyridin-1-yl]-4,4,4-trifluoro-butan-1-one] in this work.
An IC50 of 652 nM was found for `O=C(CCC(F)(F)F)N1CC=C(c2cccn3nc(Nc4ccc(C(=O)N5CCC6(CCNCC6)C5)cc4)nc23)CC1` [Example 2-187, 1-[4-[2-[4-(2,8-diazaspiro[4.5]decane-2-carbonyl)anilino]-[1,2,4]triazolo[1,5-a]pyridin-8-yl]-3,6-dihydro-2H-pyridin-1-yl]-4,4,4-trifluoro-butan-1-one] in this work.
